Measured values: article PMC8751651 (ACS Omega, 2021)
“Also recorded” adds a separate entry of the source. Where a SMILES comes first, the peptide text is derived from it. Where no end group is shown, it is not given here. The star is where a group is joined. Biotin = O=C1N[C@H]2[C@H](CS[C@H]2CCCCC(=O)*)N1

What was measured:
[1] = target: T1, SARS-CoV-2 RBD protein (Severe acute respiratory syndrome coronavirus 2, UniProt P0DTC2); type: binding
[2] = target: T1, SARS-CoV-2 RBD protein; type: binding; remark: listed apart in the source
[3] = test system: inactivated SARS-CoV-2 virus; type: binding, SARS-CoV-2 (Isolate: USA-WA1/2020)
[4] = test system: influenza A virus; type: binding

| Compound | SPR binding [1] | SPR binding curves / binding efficiency [2] | binding to inactivated virus [3] | gold nanoparticles on magnetic beads (TEM) [3] | gold nanoparticles on magnetic beads (TEM) [4] |
| --- | --- | --- | --- | --- | --- |
| CC(C)C[C@H](NC(=O)[C@H](Cc1ccccc1)NC(=O)[C@H](CC(=O)O)NC(=O)[C@H](Cc1ccccc1)NC(=O)[C@H](CS)NC(=O)[C@H](CO)NC(=O)CCCC[C@@H]1SC[C@@H]2NC(=O)N[C@@H]21)C(=O)N[C@@H](CC(N)=O)C(=O)N[C@@H](Cc1c[nH]c2ccccc12)C(=O)N[C@@H](C)C(=O)N[C@@H](CO)C(=O)N[C@@H](CS)C(=O)N[C@@H](CC(=O)O)C(=O)NCC(=O)NCC(=O)NCC(=O)N[C@@H](CO)C(=O)O [peptide 1] (Biotin-SCFDFLNWASCDGGGS-OH; C-terminus assumed) | significant binding | can efficiently bind to the SARS-CoV-2 RBD protein; also recorded: highest binding efficiency | can specifically bind to the SARS-CoV-2 virus | gold nanoparticles (dashed red circle) have conjugated onto the magnetic beads; also recorded: gold nanoparticles are observed on the magnetic beads | no gold nanoparticles are observed bound to the surface |
| Biotin-SCFDFLNWASCDGGGS (cysteine pairing not given here) [Biotinylated peptide 1] | – | – | – | gold nanoparticles (dashed red circle) have conjugated onto the magnetic beads | – |
